Laboratory results from patent US7067476B2, “Peptide derivative, and pharmaceutically acceptable salt thereof, process for producing the same, and use thereof” (priority 2001, dated 2006).

Legend:
Lys-gingipain (KGP) = Lys-gingipain (KGP) (Porphyromonas gingivalis, UniProt B2RLK2); assay: Inhibitory activity against Lys-gingipain (KGP), substrate Cbz-His-Glu-Lys-MCA; type: biochemical; settings: read-out: Enzyme inhibitory activity (%) KGP
Protocol: (§1) The inhibitory activity against Lys-gingipain (KGP) was measured by the method of Abe et al. (Journal Biochemistry, 1998, Vol. 123, 305–312) using Cbz-His-Glu-Lys-MCA as a substrate. The inhibitory activity against Arg-gingipain (RGP) was measured by the method of Kadowaki et al. (Journal Biological Chemistry, 1994, Vol. 269, 21371–21378) using Cbz-Phe-Arg-MCA as a substrate. More specifically, the measurements were carried out in the following manner: 100 μl of 50 mM L-cystein, 200 μl of a 0.1 M sodium phosphate buffer solution (pH 7.5), 20 μl of 12.3 nM KGP or RGP solution containing 0.05% “Brij35” (a tradename, product of Aldrich, polyoxyethylene(23) lauryl ether), 80 μl of distilled water and 100 μl of a dimethyl sulfoxide solution of a compound according to the invention were mixed and preincubated at 37° C. for 5 minutes. Thereafter, 500 μl of a 0.1% dimethyl sulfoxide solution containing 20 μM Cbz-His-Glu-Lys-MCA (for KGP) or Cbz-Phe-Arg-MCA (for RGP) was added, followed by incubation at 40° C. for 10 minutes. An acetic acid buffer solution (pH 5.0) containing 10 mM iodoacetamide was then added to stop the enzyme reaction. The fluorescence intensity (F) at 460 nm upon excitation at 380 nm was measured.

Arg-gingipain (RGP) = assay: Inhibitory activity against Arg-gingipain (RGP), substrate Cbz-Phe-Arg-MCA; type: biochemical, Porphyromonas gingivalis
Protocol: as §1

Work on `Cl.NCCCC[C@H](NC(=O)[C@H](CCC(=O)O)NC(=O)OCc1ccccc1)C(=O)C(=O)N[C@@H](CCCNC(N)=N[N+](=O)[O-])C(=O)C(=O)NCCc1ccccc1` [Example 3] yielded an inhibition at 1 µM (Lys-gingipain (KGP)) of 99.9%, an inhibition at 10 µM (Lys-gingipain (KGP)) of 99.9% and an inhibition at 100 µM (Lys-gingipain (KGP)) of 100%. The “Enzyme inhibitory activity (%) RGP” value (Arg-gingipain (RGP); concentration 10^−4 mol/l) was 99.4%, the “Enzyme inhibitory activity (%) RGP” value (Arg-gingipain (RGP); concentration 10^−5 mol/l) was 96.8% and the “Enzyme inhibitory activity (%) RGP” value (Arg-gingipain (RGP); concentration 10^−6 mol/l) was 81.1%.
